According to US20170119806A1, “[…] LACTONE DERIVATIVES AND METHODS OF MAKING AND USING THEREOF” (OHIO STATE INNOVATION FOUNDATION, priority 2014, published 2017):

Test system: NF-κB p65
Test: Immunoblotting of p65 and p-p65 in NK cells
Format: cell-based, human
Settings: 5 and 10 μM PL-C, 18 h
Experimental: (A) Purified primary human NK cells were treated with 5 and 10 μM PL-C for 18 h. The cells were harvested and lysed for immunoblotting using p65 and p-p65 Abs. β-Actin immunoblotting was included as the internal control. Data shown are for treatment with PL-C alone (top panel) or in combination with IL-12 (10 ng/mL) (middle panel) or IL-15 (100 ng/mL) (bottom panel) and are the representative plots of four donors with similar results. Numbers under each lane represent quantification of p-p65 or p65 via densitometry, after normalizing to β-actin. (B) NKL cells were treated, and data are presented as described in (A). Data from one of three independent experiments with similar results are shown. (C) Purified primary human NK (left panel) or NKL cells (right panel) were cotreated with 10 μM PL-C and IL-12 (10 ng/mL) in the presence or absence of the NF-κB inhibitor TPCK (10 μM) for 18 h. Supernatants were assayed for IFN-γ secretion by ELISA (top panel), and cells were harvested and lysed for immunoblotting of p-p65 (bottom panel). Representative data from one of three donors with the similar data (left panel) and the summary of three independent experiments with similar results (right panel) are shown. **p<0.01. Error bars represent SD.
Immunoblotting. Immunoblotting was performed as described previously (Yu J et al. Immunity 2006, 24, 575-590; Yu J et al. Blood 2010, 115, 274-281). […]

`COc1cc2c(OC3OCC(O)C(O)C3O)c3c(c(-c4ccc5c(c4)OCO5)c2cc1OC)C(=O)OC3` (stereo not shown) [Compound 4, Phyllanthusmin C] was tested. Which “NF-κB p65 phosphorylation in primary NK and NKL cells” value did it give?
The value was “increased”.
